Where two headings read alike, the source gives them in different places.
Tests used:
[1] = biological target: T1, Ggly (Homo sapiens, UniProt P01350); details: cited from earlier work; for quenching of Ggly fluorescence: WO 2004/089976; for binding to Ggly: detected by measurement of Ggly fluorescence (Baldwin 2001)
[2] = biological target: T2, progastrin (Homo sapiens, UniProt P01350); details: competition with ^59Fe^3+ ions (Baldwin 2004); cited from earlier work
T2 sequence (P01350 27-101 limits assumed): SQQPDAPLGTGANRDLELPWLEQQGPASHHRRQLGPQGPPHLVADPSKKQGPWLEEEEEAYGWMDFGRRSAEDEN

[3] = biological target: T1, Ggly; details: 20 equivalents; WO 2004/089976; cited from earlier work
[4] = biological target: T1, Ggly; details: Ggly binds two Bi^3+ ions at pH 4; read-out: affinity; cited from earlier work
[5] = biological target: T1, Ggly; assay: Absorption spectroscopy (280 nm) of metal ion binding to Ggly, fitted with BioEqs; details: for A280 (%) for first site / A280 (%) for mixed FeGastrinM complex / A280 (%) for second site: Ggly, percentage absorbance at 280 nm, fitted
Procedure: (§1) Gamide and Ggly (88 and 93% pure, respectively) were purchased from Auspep (Clayton, Australia). The impurities consisted of water and salts. Solutions of metal ions (Aldrich, St. Louis, Mo.) were prepared in 10 mM HCl, and their concentrations determined by inductively coupled plasma-atomic emission spectroscopy at the National Measurement Institute (Pymble, Australia).
(§2) The 280 nm absorption of peptides (10 μM in 10 mM sodium acetate, pH 4.0, containing 100 mM NaCl and 0.005% Tween 20) in the presence of increasing concentrations of metal ions was measured against a buffer blank, in 1 ml quartz cuvettes thermostatted at 298 K, with a Cary 5 spectrophotometer (Varian, Mulgrave, Australia).
(§3) Data (expressed as means±S.E.M.) were fitted to one-site or two-site ordered models (as per FIG. 1) with the program BioEqs.
(§4) New absorption data sets were obtained, and fitted with the program Bioeqs as described in the Materials and Methods section. […] In the 2 site competitive model gastrin binds two ferric ions with dissociation constants Kd1Fe and Kd2Fe, and two metal ions M to the same two sites with dissociation constants Kd1M and Kd2M. The dissociation constant Kd3M describes the formation of the mixed FeGastrinM complex.

[6] = biological target: T3, Gamide (Homo sapiens, UniProt P01350); assay: Absorption spectroscopy (280 nm) of metal ion binding to Gamide, fitted with BioEqs; details: for A280 (%) for first site / A280 (%) for mixed FeGastrinM complex / A280 (%) for second site: percentage absorbance at 280 nm, fitted
T3 construct: amidated gastrin34 and amidated gastrin17 (Gamide); purchased Auspep (Clayton, Australia)
Procedure: as §1, §2, §3, §4

[7] = tested on: colon; details: infusion into gastrin-deficient mice (Wang 1996); cited from earlier work
[8] = tested on: gastrins; assay: Screen of binding affinities of a range of metals to gastrins
[9] = read-out: Kd2 (second site), Ggly 10 μM, pH 4.0, 298 K, 2 site or 2 site competitive model
[10] = Gamide 10 μM, pH 4.0, 298 K, 2 site or 2 site competitive model, read-out: Kd2 (second site)
[11] = Gamide, 2 site competitive model, read-out: Kd3 (formation of mixed FeGastrinM complex)
[12] = Gamide 10 μM, pH 4.0, 298 K, 2 site model (Fe, Ga) or 2 site competitive model vs Fe^3+ (In, Ru), read-out: Kd1 (first iron binding site)

[Co+2] [Co(II)]
quenching of Ggly fluorescence [1]: not quench fluorescence | binding to Ggly [1]: does not bind | binding to progastrin [2]: does not bind

[Al+3] [Al(III)]
shift in Ggly NMR signals [3]: nor did 20 equivalents of Al^3+ cause any significant shift in Ggly NMR signals | binding to progastrin [2]: does not bind

[Cr+3] [Cr(III)]
quenching of Ggly fluorescence [1]: not quench fluorescence | binding to Ggly [1]: does not bind | binding to progastrin [2]: does not bind

[Bi+3] [Bi^3+]
Kd [4]: 5800 nM

[Ru+3] [Ru^3+]
Kd [5]: 1200 nM | A280 (%) for first site [5]: 100.0% | A280 (%) for mixed FeGastrinM complex [5]: 304.1% | A280 (%) for second site [5]: 1714.8% | Kd [5, 9]: 360000 nM | Kd [6, 10]: 12000 nM | Kd [6, 11]: 17 nM | A280 (%) for first site ([6]; Gamide): 100.0% | A280 (%) for mixed FeGastrinM complex ([6]; Gamide): 264.9% | A280 (%) for second site ([6]; Gamide): 178.6%

[Eu+3] [Eu(III)]
binding to progastrin [2]: does not bind

ZGPWLEEEEEAYGWMDFamide [gastrin/Gamide]
increase of colonic proliferative index [7]: no effect

[Zn+2] [Zn(II)]
binding to progastrin [2]: does not bind

[AsH3] [arsenic]
high affinity binding to gastrins [8]: did not show high affinity binding

[In+3] [In^3+]
Kd [5]: 96 nM | A280 (%) for first site [5]: 100.0% | A280 (%) for mixed FeGastrinM complex [5]: 255.6% | A280 (%) for second site [5]: 72.8% | Kd [5, 9]: 14000 nM | Kd [6, 10]: 170 nM | Kd [6, 11]: 4 nM | A280 (%) for first site ([6]; Gamide): 100.0% | A280 (%) for mixed FeGastrinM complex ([6]; Gamide): 217.7% | A280 (%) for second site ([6]; Gamide): 74.1%

[Cu+2] [Cu(II)]
quenching of Ggly fluorescence [1]: not quench fluorescence | binding to Ggly [1]: does not bind | binding to progastrin [2]: does not bind

[Fe+2] [Fe(II)]
binding to progastrin [2]: does not bind

[Ga+3] [Ga^3+]
Kd [5]: 17 nM | A280 (%) for first site [5]: 100.0% | A280 (%) for second site [5]: 340.2% | Kd [5, 9]: 2300 nM | Kd [6, 12]: 330 nM | Kd [6, 10]: 1100 nM | A280 (%) for first site ([6]; Gamide): 100.0% | A280 (%) for second site ([6]; Gamide): 335.8% | Kd ([6]; Gastrin/Gamide, 2 site model, read-out: dissociation constant (Kd), first site): 330 nM | Kd ([6]; Gastrin/Gamide, 2 site model, read-out: dissociation constant (Kd), second site): 1100 nM

[Fe+3] [Fe^3+]
A280 (%) for first site [5]: 100.0% | A280 (%) for second site [5]: 365.9% | Kd ([5]; Kd1 (first iron binding site), Ggly 10 μM, pH 4.0, 298 K, 2 site model (Fe, Ga) or 2 site competitive model vs Fe^3+ (In, Ru)): 5.7 nM | Kd ([5]; Kd2 (second site), Ggly 10 μM, pH 4.0, 298 K, 2 site or 2 site competitive model): 7 nM | Kd [6, 12]: 0.3 nM | Kd [6, 10]: 0.085 nM | A280 (%) for first site ([6]; Gamide): 100.0% | A280 (%) for second site ([6]; Gamide): 313.4%

[Ca+2] [Ca(II)]
binding to progastrin [2]: does not bind

[Sb] [antimony]
high affinity binding to gastrins [8]: did not show high affinity binding

[Mn+2] [Mn(II)]
quenching of Ggly fluorescence [1]: not quench fluorescence | binding to Ggly [1]: does not bind | binding to progastrin [2]: does not bind
